# Laboratory results taken from patent US20240390529A1, “DUAL-MODE PROBE FOR DETECTING HYDROGEN SULFIDE AND USE THEREOF” (KYUNGPOOK NATIONAL UNIVERSITY INDUSTRY-ACADEMIC COOPERATION …, priority 2022, published 2024).
# Key:
# [1] = system: brain H2S; test: PET/CT imaging in Parkinson's disease rat model; format: in vivo, SD rats; conditions: PET/CT 1 hour after injection of about 1 mCi
# Protocol: The Parkinson's disease-induced rat model was prepared by taking 7-week-old SD rats and injecting 6-hydroxydopamine (6-OHDA) into the medial forebrain bundle using a Hamilton syringe after drilling a small 1.5 mm hole in the rat's skull near the parietal region at 8 weeks of age.
# In addition, the uptake pattern was also different between normal rats and the Parkinson's disease rat model (FIG. 23).
# [2] = In vitro stability in FBS and PBS (radio-TLC demetalization); format: in vitro ADME; conditions: 37° C.
# Protocol: ^64Cu-ATSM-FITC(6) (10 μL, 37 MBq) was first mixed with FBS (500 μL) or PBS (pH 7.4) at the same volume, and the mixture was incubated at 37° C. Demetalization was monitored using radio-TLC (silica, MeOH:EtOAc=5:95) for up to 12 hours.
# Radioactively labeled ^64Cu-ATSM-FITC(6) (10 μL, 37 MBq) was mixed with 100 μL of FBS or PBS at pH 7.4 in the same amount and incubated at 37° C. using a Thermomixer (500 rpm). In addition, demetalization was measured by radio-TLC (silica, MeOH:EtOAC=5:95) every 4 hours for up to 24 hours.
# [3] = Biodistribution in normal BALB/c mice (γ-counter); format: in vivo
# Protocol: BALB/c mice (male, 9 weeks old) were used to investigate the systemic distribution and clearance rate of ^64Cu-ATSM-FITC (6). ^64Cu-ATSM-FITC (6) with a radioactivity of 0.56 to 0.74 MBq in a saline solution (5% DMSO, 200 μL) was injected into mice through the tail vein under anesthesia. […] Blood was drawn, and organs comprising heart, lung, muscle, fat, bone, spleen, kidney, liver, intestine, and brain were harvested, weighed, and analyzed by using a γ-counter (Wallac Wizard 1480, PerkinElmer, France). Radioactivity was calculated as percentage of injected dose per gram (% ID/g).
# The distribution of ^64Cu-ATSM-aniline in the body was confirmed by using the same method as described in Experimental Methods 5 and 7 above.
# [4] = system: brain H2S; test: LPS neuroinflammation model, PET imaging and γ-counter quantification of brain hemispheres; format: in vivo, mice; conditions: LPS-treated animals
# Protocol: Mice were mounted in a stereotaxic frame under isoflurane anesthesia. Sterile saline (control) or LPS (5 mg/mL, Sigma-Aldrich, Saint Louis, MO, USA, catalog number: L2630) was injected unilaterally into the right striatum (anterior-posterior [AP], 0.5 mm, medial) of each mouse by using a 28-gauge Hamilton syringe attached to an automatic microinjector. Injection was carried out at a rate of 0.2 μL/min for 10 minutes. After each injection, the needle was left in place for 5 minutes before being slowly retracted.
# Brain inflammation and control models were prepared 2 days prior to the study on PET imaging (n=5 each). ^64Cu-ATSM-FITC(6) (˜18 MBq, 200 μL of 5% DMSO/PBS) was injected into mice, and the mice were scanned for 10 minutes at 10 minutes after the injection. In addition, Sprague Dawley rats were injected with radiolabeled ^64Cu-ATSM-FITC(6) (˜18 MBq, 200 μL of 5% DMSO/PBS) through the tail vein, and the mice were scanned for 20 minutes at 1 hour after the injection. CT images were generated immediately without the use of additional contrast agents. All PET images were reconstructed by using the Mediso Tera-Tomo 3D iterative algorithm, together with corrections for interaction depth, radionuclide decay, detector normalization, decision dead time, and attenuation.
# [5] = system: brain H2S; test: Animal PET/CT brain imaging, normal and AOAA-treated BALB/c mice; format: in vivo; conditions: 1 hour after injection
# Protocol: Male BALB/c mice (6 to 9 weeks old) were purchased from Hyochang Bioscience (Daegu, Korea). All mice were housed at 20 to 24° C. together with sufficient water and commercial food under a 12-h day/night cycle. For studies on H2S inhibition, male BALB/c mice were injected intraperitoneally with AOAA ((O-(carboxymethyl) hydroxylamine hemihydrochloride, 10 mg/kg, Sigma-Aldrich (C13408-1G)), 1 hour before administered with ^64Cu-ATSM-FITC(6) into the tail vein.
# Animal PET/CT images were obtained by using a nanoScan PET/CT scanner (PET 82S, Mediso, Budapest, Hungary). Radiolabeled ^64Cu-ATSM-FITC(6) (˜11 MBq, 200 μL of 5% DMSO/PBS) was injected via tail vein into normal and AOAA-treated BALB/c mice (n=4), and the mice were scanned for 20 minutes at 1 hour after the injection. For PET image-based quantification, regions of interest (ROIs) were manually drawn on the whole brain.
# Detection was performed in 1:3 matching smode with four iterations with six subsets. Analysis of the acquired PET/CT images was performed by using the Mediso InterView Fusion software package. The uptake of ^64Cu-ATSM-FITC(6) in each tissue was normalized to the administered radioactive dose and animal body weight and expressed as the average percent injected dose per gram (% ID/g).
# [6] = Lipophilicity, octanol-PBS partitioning; format: physicochemical
# Protocol: (§1) The ligand ATSM-FITC(4) was radiolabeled with ^64CuCl2 ions in 0.1M ammonium acetate buffer (pH 6.8) at 60° C., with a radiochemical yield of >97% (FIG. 3). Among the various positron-emitting radioisotopes of copper (^60Cu, ^61Cu, ^62Cu, or ^64Cu), Cu-64 has a moderately long half-life (12.7 hours) and a decay mode favorable for PET imaging (17.8% β+ decay). […] The proportion of demetalized ^64CuS in the intact ^64Cu-ATSM-FITC(6) complex may be easily quantified by radio-TLC analysis. The Rf value of ^64Cu-ATSM-FITC(6) was 0.72 on a silica plate with mobile phase (ethyl acetate methanol (95:5)), and ^64CuS remained at the origin of the TLC plate (FIG. 22). As the concentration of H2S increased, the decomplexation percentage of ^64Cu-ATSM-FITC(6) increased proportionally and reached a plateau at 20 μM of H2S (FIG. 15C). […] The lipophilicity of the radiotracer was measured using the general octanol-PBS partitioning method.
# [7] = Decomplexation of radiolabeled probe by H2S (radio-TLC)
# Protocol: as §1
smiles,measurement,setting,value
CNC([S-])=NN=C(C)C(C)=NN=C([S-])Nc1ccc(-c2c3ccc(=O)cc-3oc3cc(O)ccc23)c(C(=O)O)c1.[64Cu+2] [^64Cu-ATSM-FITC(6)],uptake in brain regions in Parkinson's disease rat model versus normal rats,[1],significantly lower
same,stability in FBS and PBS,[2],high stability
same,degradation,"[2]; FBS and PBS, up to 24 hours after incubation",Less than 10%
same,total injected activity found in the whole brain,[3],more than 3.3%
same,brain uptake,"[3]; at 5 minutes, maintained up to 2 hours after injection",greater than 9 % ID/g
same,"uptake in the heart, lungs, and kidneys",[3]; initially high,gradually decreased over time
same,increase of radioactivity at the injection site (right hemisphere) versus left hemisphere,[4],31%
same,brain uptake in PET imaging,[5]; AOAA-treated mice (10 mg/kg i.p.),11.4±2.0 % ID/g
same,brain uptake in PET imaging,[5]; control mice,15.0±1.8 % ID/g
same,log D7.4,[6],1.70±0.05
same,reaction with H2S,[7]; forms insoluble ^64CuS precipitate,reacted immediately
same,H2S concentration at which decomplexation percentage reached a plateau,[7]; radio-TLC,20 µM
